Molecular target: GlmU (Mycobacterium tuberculosis, UniProt P9WMN3)
Assay: […]; double reciprocal plots; […]
Type: biochemical

GlmU, sequence (P9WMN3 2-495): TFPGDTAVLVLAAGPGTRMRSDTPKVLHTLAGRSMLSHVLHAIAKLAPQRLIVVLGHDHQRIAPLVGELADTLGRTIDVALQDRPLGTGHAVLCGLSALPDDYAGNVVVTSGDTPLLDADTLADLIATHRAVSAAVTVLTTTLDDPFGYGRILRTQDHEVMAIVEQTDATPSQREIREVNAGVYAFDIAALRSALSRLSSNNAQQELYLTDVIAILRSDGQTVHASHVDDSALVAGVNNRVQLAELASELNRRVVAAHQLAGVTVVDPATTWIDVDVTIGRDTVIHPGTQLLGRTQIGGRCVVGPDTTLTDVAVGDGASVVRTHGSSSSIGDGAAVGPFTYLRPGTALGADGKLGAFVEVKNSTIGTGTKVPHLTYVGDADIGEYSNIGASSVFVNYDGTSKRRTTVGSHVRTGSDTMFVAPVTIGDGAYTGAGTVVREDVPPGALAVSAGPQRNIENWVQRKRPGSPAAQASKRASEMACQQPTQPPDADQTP

`O=C(O)Cc1ccc(C(=O)CSc2nccc(-c3cccs3)n2)s1` [TPSA, 2-[5-(2-{[4-(2-thienyl)-2-pyrimidinyl]sulfanyl}acetyl)-2-thienyl]acetic acid] showed an IC50 of 5.3 ± 0.48 µM.

Source: paper PMC6652808, “The Inhibitory Effect of GlmU Acetyltransferase Inhibitor TPSA on Mycobacterium tuberculosis May Be Affected Due to Its Methylation by Methyltransferase Rv0560c” (Frontiers in Cellular and Infection Microbiology, 2019)
